Here are results for three compounds from US20110263577A1 (priority 2008, published 2011).

Structures can show the parent of a compound that is named as a salt.

Sequence of α7-subtype of nicotinic receptors (Q05941 23-502): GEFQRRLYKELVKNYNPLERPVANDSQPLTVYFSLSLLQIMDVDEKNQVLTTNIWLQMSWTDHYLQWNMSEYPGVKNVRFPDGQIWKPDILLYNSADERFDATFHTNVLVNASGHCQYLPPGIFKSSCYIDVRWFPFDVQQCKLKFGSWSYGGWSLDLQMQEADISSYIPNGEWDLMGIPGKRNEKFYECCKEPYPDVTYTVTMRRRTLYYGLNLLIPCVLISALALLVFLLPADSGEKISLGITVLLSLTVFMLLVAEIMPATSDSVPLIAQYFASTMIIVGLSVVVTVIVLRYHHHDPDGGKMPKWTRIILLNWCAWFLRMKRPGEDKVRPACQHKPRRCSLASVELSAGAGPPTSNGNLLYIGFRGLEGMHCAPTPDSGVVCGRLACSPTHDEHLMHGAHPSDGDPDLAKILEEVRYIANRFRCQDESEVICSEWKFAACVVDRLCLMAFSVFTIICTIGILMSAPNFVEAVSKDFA

The assay concerns the target α7-subtype of nicotinic receptors (Rattus norvegicus, UniProt Q05941). The assay can be described thus: biochemical. Format: binding.
`c1ccc2c(c1)CC(c1nnc(N3CCN4CCC3CC4)o1)C2` [Compound 1, 4-(5-Indan-2-yl-[1,3,4]oxadiazol-2-yl)-1,4-diaza-bicyclo[3.2.2]nonane fumaric acid salt]: half-maximal inhibition (IC50) required 0.61 µM.
Compound `c1ccc2c(c1)OC(c1nnc(N3CCN4CCC3CC4)o1)O2` [Compound 2, 4-(5-Benzo[1,3]-dioxol-2-yl-[1,3,4]oxadiazol-2-yl)-1,4-diaza-bicyclo[3.2.2]nonane fumaric acid salt] displayed an IC50 of 0.75 µM. The IC50 values of the last two compounds are within 1.5-fold of each other.
For `c1ccc2c(c1)OCC(c1nnc(N3CCN4CCC3CC4)o1)O2` (stereo not drawn) [Compound 3, 4-[5-(2,3-Dihydro-benzo[1,4]dioxin-2-yl)-[1,3,4]oxadiazol-2-yl]-1,4-diaza-bicyclo[3.2.2]nonane fumaric acid salt] the value was 1.8 µM.

By IC50 is commonly meant the concentration that gives 50% inhibition. Lower therefore signals inhibition by little substance.
